Source: ChEMBL document CHEMBL3132845, “Design and discovery of 4-anilinoquinazoline ureas as multikinase inhibitors targeting BRAF, VEGFR-2 and EGFR” (Medchemcomm, 2013)

Tests used:
[1] = molecular target: Epidermal growth factor receptor (Homo sapiens, UniProt P00533); assay: Inhibition of EGFR (unknown origin) after 1 hr by Caliper mobility shift assay
[2] = molecular target: T1, Vascular endothelial growth factor receptor 2 (Homo sapiens, UniProt P35968); assay: Inhibition of VEGFR2 (unknown origin) after 1 hr by Caliper mobility shift assay
[3] = molecular target: T2, Serine/threonine-protein kinase B-raf (Homo sapiens, UniProt P15056); assay: Inhibition of BRAF (unknown origin) after 1 hr by LanthaScreen assay
[4] = molecular target: Serine/threonine-protein kinase B-raf (Homo sapiens, UniProt P15056, V600E); assay: Inhibition of BRAF V600E mutant (unknown origin) after 1 hr by LanthaScreen assay
[5] = molecular target: T2, Serine/threonine-protein kinase B-raf; assay: Ratio of sorafenib IC50 to compound IC50 for BRAF (unknown origin) after 1 hr by LanthaScreen assay
[6] = molecular target: T1, Vascular endothelial growth factor receptor 2; assay: Ratio of sorafenib IC50 to compound IC50 for VEGFR2 (unknown origin) after 1 hr by Caliper mobility shift assay

T2 sequence (P15056 whole entry): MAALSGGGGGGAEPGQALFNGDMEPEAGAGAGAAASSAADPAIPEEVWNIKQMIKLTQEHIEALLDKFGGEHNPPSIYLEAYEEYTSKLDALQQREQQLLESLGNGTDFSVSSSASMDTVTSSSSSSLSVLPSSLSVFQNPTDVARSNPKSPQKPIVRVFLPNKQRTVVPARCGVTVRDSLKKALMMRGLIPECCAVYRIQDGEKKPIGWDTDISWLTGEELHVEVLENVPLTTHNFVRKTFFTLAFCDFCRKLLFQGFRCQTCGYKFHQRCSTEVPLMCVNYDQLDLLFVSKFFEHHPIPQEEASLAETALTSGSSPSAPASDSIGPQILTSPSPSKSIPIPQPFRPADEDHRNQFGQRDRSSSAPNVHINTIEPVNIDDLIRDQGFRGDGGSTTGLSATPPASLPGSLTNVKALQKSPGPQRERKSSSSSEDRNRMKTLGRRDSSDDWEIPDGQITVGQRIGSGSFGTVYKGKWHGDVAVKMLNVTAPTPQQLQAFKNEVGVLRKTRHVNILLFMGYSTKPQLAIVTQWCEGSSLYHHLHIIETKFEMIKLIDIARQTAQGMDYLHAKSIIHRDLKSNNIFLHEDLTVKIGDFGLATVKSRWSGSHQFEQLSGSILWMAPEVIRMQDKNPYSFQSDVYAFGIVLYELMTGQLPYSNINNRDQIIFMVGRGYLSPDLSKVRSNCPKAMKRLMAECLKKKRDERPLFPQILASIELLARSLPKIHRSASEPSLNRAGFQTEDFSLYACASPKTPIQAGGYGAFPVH
T1 sequence (P35968 whole entry): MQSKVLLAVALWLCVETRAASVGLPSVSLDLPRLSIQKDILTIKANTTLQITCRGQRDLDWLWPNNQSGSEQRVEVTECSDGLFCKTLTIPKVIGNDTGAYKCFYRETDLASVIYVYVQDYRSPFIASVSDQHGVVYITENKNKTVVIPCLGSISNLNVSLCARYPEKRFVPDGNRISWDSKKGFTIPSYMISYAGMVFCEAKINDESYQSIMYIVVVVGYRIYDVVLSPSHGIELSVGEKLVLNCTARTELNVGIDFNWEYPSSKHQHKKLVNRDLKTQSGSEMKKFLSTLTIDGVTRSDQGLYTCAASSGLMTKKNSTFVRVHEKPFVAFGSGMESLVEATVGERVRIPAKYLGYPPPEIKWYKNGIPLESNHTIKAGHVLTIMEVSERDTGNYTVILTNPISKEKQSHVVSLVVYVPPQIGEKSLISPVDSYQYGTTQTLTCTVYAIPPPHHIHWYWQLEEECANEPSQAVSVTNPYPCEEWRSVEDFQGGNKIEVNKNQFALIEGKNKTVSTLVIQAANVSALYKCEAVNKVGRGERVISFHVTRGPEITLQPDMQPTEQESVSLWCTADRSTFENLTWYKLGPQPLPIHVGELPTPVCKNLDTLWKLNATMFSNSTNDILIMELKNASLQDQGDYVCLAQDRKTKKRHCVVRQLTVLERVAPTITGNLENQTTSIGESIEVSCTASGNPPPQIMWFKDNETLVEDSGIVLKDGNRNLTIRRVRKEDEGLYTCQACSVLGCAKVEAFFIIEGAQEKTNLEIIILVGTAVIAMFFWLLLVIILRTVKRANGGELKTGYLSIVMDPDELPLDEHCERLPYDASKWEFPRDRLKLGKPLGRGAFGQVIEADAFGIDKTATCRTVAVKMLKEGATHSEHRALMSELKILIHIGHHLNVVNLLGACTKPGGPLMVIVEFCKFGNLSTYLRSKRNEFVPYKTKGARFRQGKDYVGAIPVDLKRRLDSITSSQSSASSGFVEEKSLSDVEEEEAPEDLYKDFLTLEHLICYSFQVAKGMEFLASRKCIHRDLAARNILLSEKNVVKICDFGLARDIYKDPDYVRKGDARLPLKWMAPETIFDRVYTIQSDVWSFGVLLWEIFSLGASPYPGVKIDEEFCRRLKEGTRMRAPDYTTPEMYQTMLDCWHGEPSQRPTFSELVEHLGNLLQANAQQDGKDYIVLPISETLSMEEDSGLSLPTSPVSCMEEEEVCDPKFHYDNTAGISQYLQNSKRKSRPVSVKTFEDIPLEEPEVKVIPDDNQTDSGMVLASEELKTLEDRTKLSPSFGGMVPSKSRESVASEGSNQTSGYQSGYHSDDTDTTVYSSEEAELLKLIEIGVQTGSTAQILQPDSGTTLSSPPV
Sequence of Serine/threonine-protein kinase B-raf (Homo sapiens, UniProt P15056, V600E) (P15056 2-766 V600E limits assumed): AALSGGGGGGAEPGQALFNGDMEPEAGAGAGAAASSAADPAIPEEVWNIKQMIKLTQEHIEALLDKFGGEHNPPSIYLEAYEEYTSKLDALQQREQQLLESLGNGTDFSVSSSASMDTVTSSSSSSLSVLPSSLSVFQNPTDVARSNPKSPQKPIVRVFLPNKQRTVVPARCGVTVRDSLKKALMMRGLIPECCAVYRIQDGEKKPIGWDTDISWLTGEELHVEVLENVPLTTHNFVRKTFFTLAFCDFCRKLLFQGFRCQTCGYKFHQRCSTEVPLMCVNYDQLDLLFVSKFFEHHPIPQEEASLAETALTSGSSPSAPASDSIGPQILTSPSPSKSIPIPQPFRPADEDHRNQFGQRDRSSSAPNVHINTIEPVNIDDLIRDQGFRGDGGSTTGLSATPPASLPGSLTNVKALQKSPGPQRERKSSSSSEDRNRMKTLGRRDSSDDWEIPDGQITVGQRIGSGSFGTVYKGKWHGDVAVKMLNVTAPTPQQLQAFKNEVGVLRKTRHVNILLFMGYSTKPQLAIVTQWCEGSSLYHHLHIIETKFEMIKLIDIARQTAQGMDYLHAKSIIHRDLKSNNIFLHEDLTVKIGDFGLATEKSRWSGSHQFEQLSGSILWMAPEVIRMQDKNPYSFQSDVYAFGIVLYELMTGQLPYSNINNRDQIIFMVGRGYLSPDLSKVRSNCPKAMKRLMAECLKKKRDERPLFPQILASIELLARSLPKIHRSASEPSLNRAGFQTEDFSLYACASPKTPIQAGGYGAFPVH
Sequence of Epidermal growth factor receptor (P00533 whole entry): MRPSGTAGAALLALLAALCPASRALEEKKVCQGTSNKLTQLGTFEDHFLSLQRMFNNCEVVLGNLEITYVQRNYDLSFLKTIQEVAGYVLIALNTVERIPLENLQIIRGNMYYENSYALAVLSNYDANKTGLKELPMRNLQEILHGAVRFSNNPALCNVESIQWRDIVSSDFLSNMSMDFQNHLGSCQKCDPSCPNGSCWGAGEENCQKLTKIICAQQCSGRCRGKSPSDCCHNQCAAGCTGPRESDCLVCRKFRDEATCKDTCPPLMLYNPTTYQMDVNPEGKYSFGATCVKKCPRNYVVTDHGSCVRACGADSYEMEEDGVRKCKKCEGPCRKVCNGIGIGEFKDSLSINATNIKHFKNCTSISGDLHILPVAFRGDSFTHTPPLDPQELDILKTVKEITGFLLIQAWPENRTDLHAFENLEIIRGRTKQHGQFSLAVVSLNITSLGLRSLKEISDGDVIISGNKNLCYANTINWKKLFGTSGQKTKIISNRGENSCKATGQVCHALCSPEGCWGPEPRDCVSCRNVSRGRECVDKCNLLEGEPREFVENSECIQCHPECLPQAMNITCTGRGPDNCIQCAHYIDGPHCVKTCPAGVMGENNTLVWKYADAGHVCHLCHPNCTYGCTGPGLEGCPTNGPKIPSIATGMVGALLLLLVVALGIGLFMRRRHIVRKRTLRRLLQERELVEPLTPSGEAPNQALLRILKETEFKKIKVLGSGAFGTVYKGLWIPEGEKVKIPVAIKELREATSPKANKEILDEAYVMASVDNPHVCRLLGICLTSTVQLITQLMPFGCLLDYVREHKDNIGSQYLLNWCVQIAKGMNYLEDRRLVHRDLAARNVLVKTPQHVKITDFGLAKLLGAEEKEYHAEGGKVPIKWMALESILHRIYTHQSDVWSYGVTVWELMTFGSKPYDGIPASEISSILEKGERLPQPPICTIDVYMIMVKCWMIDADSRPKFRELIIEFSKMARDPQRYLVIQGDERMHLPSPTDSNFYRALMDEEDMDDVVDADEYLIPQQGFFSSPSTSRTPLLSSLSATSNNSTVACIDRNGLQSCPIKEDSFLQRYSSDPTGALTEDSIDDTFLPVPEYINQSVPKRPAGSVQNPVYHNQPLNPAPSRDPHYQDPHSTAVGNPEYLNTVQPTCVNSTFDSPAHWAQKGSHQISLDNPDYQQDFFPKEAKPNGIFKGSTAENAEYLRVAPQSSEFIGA

| SMILES | IC50 [1] [nM] | IC50 [2] [nM] | IC50 [3] [nM] | IC50 [4] [nM] | Ratio IC50 [5] | Ratio IC50 [6] |
| --- | --- | --- | --- | --- | --- | --- |
| CCN(CCO)CCCOc1ccc2c(Nc3cccc(NC(=O)Nc4ccc(Cl)c(C(F)(F)F)c4)c3)ncnc2c1 | 188 | 91 | 112 | 53 |  |  |
| CCN(CCO)CCCOc1ccc2c(Nc3cccc(NC(=O)Nc4ccc(F)c(Cl)c4)c3)ncnc2c1 | 165 | 95 | 22 | 13 | 5 |  |
| COc1cc2ncnc(Nc3cccc(NC(=O)Nc4ccc(F)c(Cl)c4)c3)c2cc1OCCCN1CCOCC1 | > 10000 | > 10000 | 31 | 55 | 4 |  |
| COc1cc2ncnc(Nc3cccc(NC(=O)Nc4cccc(C)c4)c3)c2cc1OCCCN1CCOCC1 | 2350 | 8570 | 119 | 54 |  |  |
| O=C(Nc1cccc(Nc2ncnc3cc(OCCCN4CCOCC4)ccc23)c1)Nc1ccc(F)c(Cl)c1 | 3320 | 2170 | 72 | 42 |  |  |
| COc1cc2ncnc(Nc3cccc(NC(=O)Nc4ccc(Cl)c(C(F)(F)F)c4)c3)c2cc1OCCCN1CCOCC1 | 82 | 213 | 195 | 75 |  |  |
| O=C(Nc1cccc(Nc2ncnc3cc(OCCCN4CCN(CCO)CC4)ccc23)c1)Nc1ccc(Cl)c(C(F)(F)F)c1 | 99 | 75 | 101 | 58 |  |  |
| COc1cc2ncnc(Nc3ccc(NC(=O)Nc4ccc(Cl)c(C(F)(F)F)c4)cc3)c2cc1OCCCN1CCOCC1 | 285 | 17 | 539 | 371 |  | 3 |
